The record followed here is patent US20240101570A1 (AMGEN INC., priority 2020, published 2024).

The IC50 is the concentration needed to halve the response being measured.

For one assay, the system named is HCT116 MTAP null cells. Kind of assay: HCT116 MTAP null cell proliferation / viability (CellTiter-Glo, 6 days). In kind it is cell-based. Conditions: HCT116-MTAP null, 144 h, HCT116 MTAP null cells, 6 days, CellTiter-Glo; read-out: HCT-116 MTAP null IC50. The method, then: (§1) HCT116 MTAP null and WT cells were seeded in 96-well tissue culture plates in RPMI 1640 media+10% fetal bovine serum. Plates were incubated overnight at 37° C. and 5% CO2. Cells were then treated with an 8- or 9-point serial dilution of compound, using a top concentration of 1, or 10 μM, 1:3 serial dilution steps and, a DMSO-only control. Cells were incubated in the presence of drug for 6 days. Effects on cell viability were measured with the CellTiter-Glo® Luminescent Cell Viability Assay (Promega) per manufacturer's recommendation. Assay plates were read on an EnVision™ Multilabel Reader using the Ultra-Sensitive luminescence module. IC50 values were calculated with GraphPad Prism v 5.01 using symmetrical sigmoidal dose-response least squares fit with Hill slope fixed to −1 and top constrain to 100% or GeneData Screener using a 4-parameter logistic model to fit dose response curves.
(§2) Alternatively, compounds could be assayed with a 384 well plate format:
(§3) Compounds were pre-spotted into 384 well plates with a 22-point serial dilution of compound, using a top concentration of 10 or 50 μM, 1:2 serial dilution steps and, a DMSO-only control. HCT116 MTAP null and WT cells were then seeded as above and after 6 days effects on cell viability were measured with the CellTiter-Glo® Luminescent Cell Viability Assay (Promega). Assay plates were read as above and IC50 values were calculated with GeneData Screener using a 4-parameter logistic model to fit dose response curves. The reported IC50 represents the value where the curve transits 50% of control.
A general note: Cellular ATP, detected with luciferase, serves as a proxy for viable cell number.

In a further assay the test system is HCT116 WT cells. Kind of assay: HCT116 WT cell proliferation / viability (CellTiter-Glo, 6 days). In kind it is cell-based. Conditions: Homo sapiens, HCT-116, 144 h, HCT116 WT cells, 6 days, CellTiter-Glo; read-out: HCT-116 WT IC50. The method, then: as §1, §2, §3

Consider `COCC(C)N(Cc1ccc(C(F)(F)F)nn1)C(=O)c1ccc2nc(N)c3c(c2c1)CO[C@@H]3C` (mixture of isomers) [Example 304, (3R)-4-amino-N-((2R)-1-methoxy-2-propanyl)-3-methyl-N-((6-(trifluoromethyl)-3-pyridazinyl)methyl)-1,3-dihydrofuro[3,4-c]quinoline-8-carboxamide and (3R)-4-amino-N-((2S)-1-methoxy-2-propanyl)-3-methyl-N-((6-(trifluoromethyl)-3-pyridazinyl)methyl)-1,3-dihydrofuro[3,4-c]quinoline-8-carboxamide], for which the half-maximal inhibitory concentration (IC50) is 26 nM in the assay with HCT116 MTAP null cells and 352 nM in the assay on HCT116 WT cells.

Turning to `COCC(C)N(Cc1ccc(C(F)(F)F)nn1)C(=O)c1cc2c3c(c(N)nc2cn1)[C@@H](C)OC3` (mixture of isomers) [Example 314, (3R)-4-amino-N-((2R)-1-methoxy-2-propanyl)-3-methyl-N-((6-(trifluoromethyl)-3-pyridazinyl)methyl)-1,3-dihydrofuro[3,4-c][1,7]naphthyridine-8-carboxamide and (3R)-4-amino-N-((2S)-1-methoxy-2-propanyl)-3-methyl-N-((6-(trifluoromethyl)-3-pyridazinyl)methyl)-1,3-dihydrofuro[3,4-c][1,7]naphthyridine-8-carboxamide], the half-inhibitory concentration (IC50) in the assay with HCT116 MTAP null cells was determined as 254 nM; in the assay with HCT116 WT cells it was 15200 nM.

With `COCC(C)N(Cc1ccc(C(F)(F)F)nn1)C(=O)c1ccc2nc(N)c3c(c2c1)COC3` (racemic) [Example 303, 4-amino-N-((2R)-1-methoxy-2-propanyl)-N-((6-(trifluoromethyl)-3-pyridazinyl)methyl)-1,3-dihydrofuro[3,4-c]quinoline-8-carboxamide and 4-amino-N-((2S)-1-methoxy-2-propanyl)-N-((6-(trifluoromethyl)-3-pyridazinyl)methyl)-1,3-dihydrofuro[3,4-c]quinoline-8-carboxamide], the values for the IC50 in the assay on HCT116 MTAP null cells and in the assay on HCT116 WT cells were 24 nM and 574 nM, respectively.

With `CC(C)N(Cc1ccc(Br)nn1)C(=O)c1ccc2nc(N)c3c(c2c1)COC3` [Example 335, 4-amino-N-((6-bromo-3-pyridazinyl)methyl)-N-(2-propanyl)-1,3-dihydrofuro[3,4-c]quinoline-8-carboxamide], the concentration for half-maximal inhibition (IC50) with HCT116 MTAP null cells is 361 nM.

Take `CC(C)(C)CN(Cc1ccc(C(F)(F)F)cn1)C(=O)c1ccc2nc(N)c3c(c2c1)COC3` [Example 342, 4-amino-N-(2,2-dimethylpropyl)-N-((5-(trifluoromethyl)-2-pyridinyl)methyl)-1,3-dihydrofuro[3,4-c]quinoline-8-carboxamide]: in the assay on HCT116 MTAP null cells, the 50% inhibitory concentration (IC50) is 1310 nM.

For the compound `CC1(N(Cc2ccc(C(F)(F)F)cn2)C(=O)c2cc3c4c(c(N)nc3cn2)COC4)CC1` [Example 699, 4-amino-N-(1-methylcyclopropyl)-N-((5-(trifluoromethyl)-2-pyridinyl)methyl)-1,3-dihydrofuro[3,4-c][1,7]naphthyridine-8-carboxamide], the IC50 with HCT116 MTAP null cells was found to be 249 nM.

Turning to `CC1OCc2c1c(N)nc1ccc(C(=O)N(Cc3ccc(C(F)(F)F)cn3)C(C)C3CCOCC3)cc21` (stereo not shown) [Example 891, 4-amino-3-methyl-N-(1-(tetrahydro-2H-pyran-4-yl)ethyl)-N-((5-(trifluoromethyl)pyridin-2-yl)methyl)-1,3-dihydrofuro[3,4-c]quinoline-8-carboxamide], in the assay on HCT116 MTAP null cells, the IC50 is 40 nM.

Consider `CC1OCc2c1c(N)nc1ccc(C(=O)N(Cc3ccc(C(F)(F)F)cn3)C[C@H]3CC[C@H](O)CC3)cc21` (stereo partly shown) [Example 893, 4-amino-N-(((1r,4r)-4-hydroxycyclohexyl)methyl)-3-methyl-N-((5-(trifluoromethyl)pyridin-2-yl)methyl)-1,3-dihydrofuro[3,4-c]quinoline-8-carboxamide], for which the IC50 in the assay with HCT116 MTAP null cells stood at 41 nM.

As to `CC1OCc2c1c(N)nc1ccc(C(=O)N(Cc3ccc(C#N)cn3)C[C@H]3CC[C@H](O)CC3)cc21` (stereo partly shown) [Example 894, 4-amino-N-((5-cyanopyridin-2-yl)methyl)-N-(((1r,4r)-4-hydroxycyclohexyl)methyl)-3-methyl-1,3-dihydrofuro[3,4-c]quinoline-8-carboxamide], the 50% inhibitory concentration (IC50) with HCT116 MTAP null cells came out at 180 nM.

Turning to `CC1OCc2c1c(N)nc1ccc(C(=O)N(Cc3ccc(C(F)(F)F)cn3)C3CC3N)cc21` (stereo not shown) [Example 906, 4-amino-N-(2-aminocyclopropyl)-3-methyl-N-((5-(trifluoromethyl)pyridin-2-yl)methyl)-1,3-dihydrofuro[3,4-c]quinoline-8-carboxamide], the concentration for half-maximal inhibition (IC50) with HCT116 MTAP null cells stood at 790 nM.

With `CC1OCc2c1c(N)nc1ccc(C(=O)N(CC3=CCCOC3)Cc3ccc(C#N)cn3)cc21` (stereo not shown) [Example 912, 4-amino-N-((5-cyanopyridin-2-yl)methyl)-N-((5,6-dihydro-2H-pyran-3-yl)methyl)-3-methyl-1,3-dihydrofuro[3,4-c]quinoline-8-carboxamide], the 50% inhibitory concentration (IC50) in the assay with HCT116 MTAP null cells came to 140 nM.

`CC1OCc2c1c(N)nc1ccc(C(=O)N(Cc3ccc(C#N)cn3)Cc3cnc(N)s3)cc21` (stereo not shown) [Example 914, 4-amino-N-((2-aminothiazol-5-yl)methyl)-N-((5-cyanopyridin-2-yl)methyl)-3-methyl-1,3-dihydrofuro[3,4-c]quinoline-8-carboxamide]: the 50% inhibitory concentration (IC50) in the assay with HCT116 MTAP null cells came to 200 nM.

As to `CC(C)CN(Cc1ccc(C(F)(F)F)cn1)C(=O)c1ccc2nc(N)c3c(c2c1)COC3C` (stereo not shown) [Example 919, 4-amino-N-isobutyl-3-methyl-N-((5-(trifluoromethyl)pyridin-2-yl)methyl)-1,3-dihydrofuro[3,4-c]quinoline-8-carboxamide], in the assay with HCT116 MTAP null cells, the IC50 is 25 nM.

For the compound `CC1OCc2c1c(N)nc1ccc(C(=O)N(Cc3ccc(C(F)(F)F)cn3)C(C)C(C)O)cc21` (stereo not shown) [Example 920, 4-amino-N-(3-hydroxybutan-2-yl)-3-methyl-N-((5-(trifluoromethyl)pyridin-2-yl)methyl)-1,3-dihydrofuro[3,4-c]quinoline-8-carboxamide], in the assay on HCT116 MTAP null cells, the half-maximal inhibitory concentration (IC50) came to 76 nM.

For the compound `CC1OCc2c1c(N)nc1ccc(C(=O)N(Cc3ccc(C(F)(F)F)cn3)C3CCCC(O)C3)cc21` (stereo not shown) [Example 921, 4-amino-N-(3-hydroxycyclohexyl)-3-methyl-N-((5-(trifluoromethyl)pyridin-2-yl)methyl)-1,3-dihydrofuro[3,4-c]quinoline-8-carboxamide], in the assay on HCT116 MTAP null cells, the concentration for half-maximal inhibition (IC50) turned out to be 93 nM.

For `CC1OCc2c1c(N)nc1ccc(C(=O)N(CCC3CC(O)C3)Cc3ccc(C(F)(F)F)cn3)cc21` (stereo not shown) [Example 922, 4-amino-N-(2-(3-hydroxycyclobutyl)ethyl)-3-methyl-N-((5-(trifluoromethyl)pyridin-2-yl)methyl)-1,3-dihydrofuro[3,4-c]quinoline-8-carboxamide], the 50% inhibitory concentration (IC50) in the assay on HCT116 MTAP null cells stood at 48 nM.

Regarding `CC(O)CN(Cc1ccc(C(F)(F)F)cn1)C(=O)c1ccc2nc(N)c3c(c2c1)COC3C` (stereo not shown) [Example 923, 4-amino-N-(2-hydroxypropyl)-3-methyl-N-((5-(trifluoromethyl)pyridin-2-yl)methyl)-1,3-dihydrofuro[3,4-c]quinoline-8-carboxamide], the IC50 in the assay on HCT116 MTAP null cells came out at 56 nM.

For the compound `CC(CO)CN(Cc1ccc(C(F)(F)F)cn1)C(=O)c1ccc2nc(N)c3c(c2c1)COC3C` (stereo not shown) [Example 924, 4-amino-N-(3-hydroxy-2-methylpropyl)-3-methyl-N-((5-(trifluoromethyl)pyridin-2-yl)methyl)-1,3-dihydrofuro[3,4-c]quinoline-8-carboxamide], the IC50 in the assay with HCT116 MTAP null cells was found to be 43 nM.

`CC1OCc2c1c(N)nc1ccc(C(=O)N(Cc3ccc(C(F)(F)F)cn3)CC(O)C(F)(F)F)cc21` (stereo not shown) [Example 925, 4-amino-3-methyl-N-(3,3,3-trifluoro-2-hydroxypropyl)-N-((5-(trifluoromethyl)pyridin-2-yl)methyl)-1,3-dihydrofuro[3,4-c]quinoline-8-carboxamide]: in the assay on HCT116 MTAP null cells, the half-maximal inhibitory concentration (IC50) was 35 nM.

`CC1OCc2c1c(N)nc1ccc(C(=O)N(Cc3ccc(C(F)(F)F)cn3)Cc3ncn(C)n3)cc21` (stereo not shown) [Example 926, 4-amino-3-methyl-N-((1-methyl-1H-1,2,4-triazol-3-yl)methyl)-N-((5-(trifluoromethyl)pyridin-2-yl)methyl)-1,3-dihydrofuro[3,4-c]quinoline-8-carboxamide]: the half-inhibitory concentration (IC50) in the assay with HCT116 MTAP null cells is 30 nM.

In the case of `CC1OCc2c1c(N)nc1ccc(C(=O)N(Cc3ccc(C(F)(F)F)cn3)CC3CCOC3)cc21` (stereo not shown) [Example 927, 4-amino-3-methyl-N-((tetrahydrofuran-3-yl)methyl)-N-((5-(trifluoromethyl)pyridin-2-yl)methyl)-1,3-dihydrofuro[3,4-c]quinoline-8-carboxamide], the half-inhibitory concentration (IC50) in the assay with HCT116 MTAP null cells amounted to 69 nM.

`CC(C#N)CN(Cc1ccc(C(F)(F)F)cn1)C(=O)c1ccc2nc(N)c3c(c2c1)COC3C` (stereo not shown) [Example 928, 4-amino-N-(2-cyanopropyl)-3-methyl-N-((5-(trifluoromethyl)pyridin-2-yl)methyl)-1,3-dihydrofuro[3,4-c]quinoline-8-carboxamide]: in the assay on HCT116 MTAP null cells, the 50% inhibitory concentration (IC50) was determined as 39 nM.
